Test results: US8686048B2, “Immunomodulator and anti-inflammatory compounds” (Rhizen Pharmaceuticals SA, priority 2010, dated 2014)

Tests used:
h-DHODH = target: T1, h-DHODH (Homo sapiens, UniProt Q02127); experiment: Dihydro-orotate dehydrogenase inhibition assay (U937 membrane preparations, DCIP reduction); format: biochemical; settings: U937 membrane preparation
T1 construct: endogenous in cells; host or cells: U937 cells (membrane fraction, solubilised with 1% octyl glucoside)
Outline: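 Detergent (1% octyl glucoside) extract of U937 cell membranes; dihydro-orotate-driven DCIP reduction followed as absorbance change at 600 nm after 4 h at 37° C. IC50 derived from percent inhibition of […].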

[1] = Single dose oral hepatotoxicity assay; format: in vivo, BALB/cJ mice; settings: serum, 24 hr after 100 mg/kg po single dose, mice
Experimental: 5. Single Dose Oral Hepatotoxicity Assay:
BALB/cJ (n=4 or 5/sex) mice aged 8 to 10 weeks, with weights ranging from 18 to 25 g were used. They were housed under conditions of controlled temperature and humidity and a 12-h light/dark cycle. They were given continuous access to bottled spring water and fed a standard chow at ad libitum. The mice were allowed to acclimate for 1 week before use. On the day of experiment mice were fasted overnight for 12 h and administered with test item formulation (100 mg/kg·b·wt/po) or vehicle (10 ml/kg·b·wt/po) by oral route and food was given 4 hr after test item administration. After 24 hr post administration blood samples were collected from orbital sinus of all the animals and serum was separated to assess the hepatotoxicity. Biochemical evaluation of liver function was determined by measuring serum enzyme activities of alanine aminotransferase (ALT) and aspartate aminotransferase (AST) using commercially available kits from Sigma (St. Louis, Mo.).

IL-17 = experiment: Inhibition of IL-17 release from mouse splenocytes (PMA + ionomycin, ELISA); format: cell-based, Balb/c mice; settings: Splenocyte, 3 h
Outline: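 Balb/c splenocytes (1×10^6 cells/ml, RPMI) were pretreated with inhibitor for 15 min, then stimulated with 10 ng/ml PMA plus 1 μM ionomycin. Supernatant IL-17 was measured by ELISA after 3 h. IC50 was derived from percent inhibition relative to control.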

IL17 = experiment: Inhibition of PHA induced cytokine (IL17) release in PBMC; format: cell-based; settings: Homo sapiens, 48 h, ELISA
Experimental: b. Inhibition of PHA Induced Cytokine (IL17) Release:
(§1) PBMC from freshly collected HWB were isolated by density gradient using Histopaque and seeded in a 96-well plate. Wells were incubated with desired concentrations of the inhibitor for 15 min. Proliferation was induced by the addition of 2 μM Phytohemagglutinin at 37° C. in an atmosphere containing 95% CO2. Supernatant was collected after 48 h for estimation of cytokines by ELISA. Data were analyzed using GraphPad Prism. Percent inhibition and IC50 values for each compound were determined based on the percent inhibition due to the test compound compared to the control.

HIV = settings: at a concentration that can be obtained with conventional dosing; cited from earlier work
[2] = patients; cited from earlier work
PBMC = experiment: Inhibition of PHA induced PBMC proliferation (MTT); format: cell-based; settings: Homo sapiens, 48 h
Experimental: a. Inhibition of PHA Induced PBMC Proliferation:
as §1, with “HWB was” for “HWB were”, “[…]. Viability” for “CO2. Supernatant”, “was determined” for “was collected”, “h using an 3-(4,5-Dimethylthiazol-2-yl)-2,5-diphenyltetrazolium bromide (MTT) assay.” for “h for estimation of cytokines by ELISA.”, “Prism. percent” for “Prism. Percent”, “inhibition and/or GI50” for “inhibition and IC50”

CD4+ cell [3] = experiment: Inhibition of PHA induced CD4+ cell proliferation in human whole blood; format: cell-based; settings: 48 h, flow cytometry
Experimental: c. Inhibition of PHA Induced CD4+ Cell Proliferation in Human Whole Blood:
(§2) HWB or were treated with desired concentration of inhibitor and induced with 5 μM PHA. % CD4+ cell viability was determined after 48 h by flow cytometry. Data were analyzed using GraphPad Prism. Percent inhibition and IC50 values for each compound were determined based on the percent inhibition due to the test compound compared to the control.

CD4+ cell [4] = experiment: Inhibition of PHA induced CD4+ cell proliferation in PBMC; format: cell-based; settings: Homo sapiens, isolated PBMC, 48 h, flow cytometry
Experimental: d. Inhibition of PHA Induced CD4+ Cell Proliferation in PBMC:
as §2, with “Isolated PBMC” for “HWB or”, “Prism.” for “Prism. Percent inhibition and”

IL-17 secreting cells = experiment: Determination of IL-17 producing cells by flow cytometry in PBMC; format: cell-based; settings: human PBMC, Cytostim, 4 h, read-out: inhibition of IL17 (IL-17 secreting cells normalized to total CD4+ cells)
Experimental: 3. Determination of IL-17 Producing Cells by Flow Cytometry:
PBMC isolated from human blood were stimulated and treated with desired concentrations of the test compounds prior to stimulation with Cytostim (Milteny Biotech, Germany). After 4 h, IL-17 secreting cells were stained using the IL-17 secretion assay kit as per the manufacturer's instruction and normalized to total CD4+ cells within the PBMC population. Data were analyzed using Graph pad prism.

T1 sequence (Q02127 whole entry): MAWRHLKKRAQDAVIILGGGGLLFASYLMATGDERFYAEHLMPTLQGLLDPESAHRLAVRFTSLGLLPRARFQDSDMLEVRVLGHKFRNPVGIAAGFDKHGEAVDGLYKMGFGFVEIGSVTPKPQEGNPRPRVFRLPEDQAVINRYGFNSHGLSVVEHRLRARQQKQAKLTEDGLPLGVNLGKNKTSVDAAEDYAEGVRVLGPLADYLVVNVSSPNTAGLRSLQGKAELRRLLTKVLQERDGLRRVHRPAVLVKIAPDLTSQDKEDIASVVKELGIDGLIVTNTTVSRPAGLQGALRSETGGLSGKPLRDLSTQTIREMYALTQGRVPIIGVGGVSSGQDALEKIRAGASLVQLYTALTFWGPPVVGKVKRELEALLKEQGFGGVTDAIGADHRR

SMILES | inhibition at 1 µM (h-DHODH) [%] | IC50 (h-DHODH) [nM] | melting point [°C] | ALT [1] [U/L] | AST [1] [U/L] | inhibition at 10 µM (IL-17) [%] | inhibition at 10 µM (IL17) [%] | reduction of HIV replication (HIV) | half-life time [2] | IC50 (IL-17) [nM] | inhibition at 10 µM (PBMC) [%] | inhibition at 1 µM (CD4+ cell [3]) [%] | inhibition at 0.3 µM (h-DHODH; compound tested at 0.3 uM (footnote *)) [%] | inhibition at 1 µM (CD4+ cell [4]) [%] | inhibition at 1 µM (IL-17 secreting cells) [%]
CCCCOc1cccc(-c2cc(F)c(NC(=O)c3ccccc3C(=O)O)c(F)c2)c1 [Example 35, 2-(3′-Butoxy-3,5-difluorobiphenyl-4-ylcarbamoyl)benzoic acid] | 86.5 | 11.9 | 119.3 to 123.3 | 108.3 | 172 | 7.76 |  |  |  |  |  |  |  |  | 
CCOc1cccc(-c2cc(F)c(NC(=O)c3ccccc3C(=O)O)c(F)c2)c1 [Example 5, 2-(3′-Ethoxy-3,5-difluorobiphenyl-4-ylcarbamoyl)benzoic acid] | 85.7 | 49.8 | 136 to 141 | 113.6 | 137.8 | 30.8 | > 50 |  |  |  |  |  |  |  | 
Cc1oncc1C(=O)Nc1ccc(C(F)(F)F)cc1 [leflunomide, Leflunomide] |  |  |  |  |  |  |  | about 75% | approximately 2 weeks |  |  |  |  |  | 
CCOc1cccc(-c2ccc(NC(=O)c3ccccc3C(=O)O)cc2)c1 [Example 70, 2-(3′-ethoxybiphenyl-4-ylcarbamoyl)benzoic acid] | 14 |  |  | 84 | 210.4 | 48.4 |  |  |  | 9110 |  |  |  |  | 
O=C(O)c1ccccc1C(=O)Nc1c(F)cc(-c2cccc(OC3CCCC3)c2)cc1Cl [Example 42, 2-(3-Chloro-3′-(cyclopentyloxy)-5-fluorobiphenyl-4-ylcarbamoyl)benzoic acid] | 76.9 | 24 | 122 to 126 | 113 | 189.6 | 22.3 |  |  |  |  | > 70 |  |  |  | 
CC(C)COc1cccc(-c2cc(F)c(NC(=O)c3ccccc3C(=O)O)c(Cl)c2)c1 [Example 31, 2-(3-Chloro-5-fluoro-3′-isobutoxybiphenyl-4-ylcarbamoyl)benzoic acid] | 73.5 | 44.6 | 202 to 205.5 | 65.1 | 161.4 | 21.1 |  |  |  |  |  |  |  |  | 
CCc1c[nH]c2ccc(-c3cc(F)c(NC(=O)c4ccccc4C(=O)O)c(F)c3)cc12 [Example 75, 2-[4-(3-ethyl-1H-indol-5-yl)-2,6-difluorophenylcarbamoyl]benzoic acid] |  | 1.52 | 157.9 to 160.9 | 93.9 | 210.8 | 29.4 |  |  |  | 32900 | > 70 | > 65 | 100 | > 90 | 
CCCOc1cccc(-c2cc(F)c(NC(=O)c3ccccc3C(=O)O)c(Cl)c2)c1 [Example 19, 2-(3-Chloro-5-fluoro-3′-propoxybiphenyl-4-ylcarbamoyl)benzoic acid] | 82.2 | 44.6 | 144 to 148 | 87.9 | 126.5 | 19 |  |  |  |  |  |  |  |  | 
CCCCOc1cccc(-c2cc(F)c(NC(=O)c3ccccc3C(=O)O)c(Cl)c2)c1 [Example 29, 2-(3′-butoxy-3-chloro-5-fluorobiphenyl-4-ylcarbamoyl)benzoic acid] | 94 | 7.93 | 128 to 130 | 67.9 | 114.4 | 46.1 |  |  |  | 18800 | > 70 | > 65 |  | > 90 | 43.6
